# Measurements from patent US12703718B2, “Compositions and compounds for co-delivery of uridine and ketoleucine” (PHARMA CINQ, LLC, priority 2021, dated 2026).
# Where two headings read alike, the source gives them in different places.
# Assays:
# [1] = test system: Female CD-1 mice treated with 3-nitropropionic acid (3-NP); assay: Protective effects in 3-NP mouse model of mitochondrial dysfunction (survival, weight loss); format: in vivo; details: for Survival at d 8: 3-NP 65 mg/Kg ip daily, survivors/10 mice
# Protocol: A combination of uridine triacetate and ketoleucine was assessed in a model of progressive and lethal impairment of mitochondrial oxidative phosphorylation. 3-nitropropionic acid (3-NP), an irreversible inhibitor of Complex II of the mitochondrial electron transport chain. Daily administration of 3-NP results in progressive loss of mitochondrial reserve energy capacity, until the threshold for baseline energy requirements for survival is breached, resulting in mortality from both heart failure and central nervous system dysfunction.
# In this study, uridine triacetate was administered as either by gavage as an oral bolus, or by incorporation into rodent chow at a concentration of 4% w/w. Similarly, ketoleucine (in the form of its sodium salt; NaKL) was administered in different groups by gavage or by dissolving it in drinking water. Sodium chloride (NaCl) was used as a control substance in some groups to account for the sodium load from the ketoleucine salt. • Chemical(s): Hydroxypropyl methyl cellulose (HPMC), cat #H3785, Lot #SLBS5701, CAS 9004-65-3, SIGMA-Aldrich. Uridine Triacetate for gavage (UTA), item, D000156, Lot #Q000001095, Almac Sciences, Uridine Triacetate in the diet (UTA), item & Lot #, D000302, 2148-070, Project #1314A0071A, recovery of material from R-104 Lot Q000003578, Almac Sciences, Sodium Chloride (NaCl), VWR, Cat #BDH9286-500G, Lot #1976C500, CAS 7647-14-5, 4-methyl-2-oxovaleric acid sodium salt (ketoLeucine: NaKL), cat #M326425, Lot #1-AWT-36-1, CAS4502-00-5, Toronto Research Chemicals, and 3-nitropropionic acid (3NP), cat #N5636, Lot #11101616, CAS 504-88-1, SIGMA-Aldrich. • Vehicle(s): UTA, NaKL, or NaCl in suspensions was prepared in 0.75% HPMC. NaCL or NaKL in the drinking water were prepared by dissolving in water. 3-NP solutions were prepared in water. • Dosing Formulation(s): Preparation: UTA was suspended in 0.75% HPMC at 50 mg/ml. NaKL will be suspended in 0.75% HPMC at 100 mg/ml, or included in the drinking water at 15.8 mg/ml. […]
# [2] = oral; cited from earlier work
# [3] = oral, humans; cited from earlier work
# [4] = oral, mice; cited from earlier work
SMILES,"Survival at d 8 ([1]; Group 1: 4% UTA diet, NaCl in drinking water, no gavage)","Survival at d 8 ([1]; Group 3: normal chow, regular water, UTA 1000 mg/Kg and NaCl by gavage 7 AM and 4 PM)","Protection against weight loss, comparison between groups ([1]; bolus (gavage) uridine triacetate with or without NaKL (Groups 3-5) versus 4% (w/w) uridine triacetate in chow (Groups 1 and 2))",bioavailability [2],bioavailability [3],bioavailability [4]
"CC(=O)OC[C@H]1O[C@@H](n2ccc(=O)[nH]c2=O)[C@H](OC(C)=O)[C@@H]1OC(C)=O [UTA, 2′,3′,5,-tri-O-acetyluridine]",0/10,1/10,better protection against weight loss,approximately 50%,–,–
O=c1ccn([C@@H]2O[C@H](CO)[C@@H](O)[C@H]2O)c(=O)[nH]1 [uridine],–,–,–,–,approximately 7%,approximately 7%
